This is an account of results in patent publication US6706716B2, “Compounds specific for the human α1d adrenergic receptor and uses thereof” (Synaptic Pharmaceutical Corporation, priority 1998, dated 2004).

Structures are written as SMILES.

For experiment [1], the target named is T1, human α1a adrenergic receptor (Homo sapiens, UniProt P35348).
T1 construct: The entire coding region of α1a (1401 bp); expressed in transfected cells
T1 sequence (P35348 1-466): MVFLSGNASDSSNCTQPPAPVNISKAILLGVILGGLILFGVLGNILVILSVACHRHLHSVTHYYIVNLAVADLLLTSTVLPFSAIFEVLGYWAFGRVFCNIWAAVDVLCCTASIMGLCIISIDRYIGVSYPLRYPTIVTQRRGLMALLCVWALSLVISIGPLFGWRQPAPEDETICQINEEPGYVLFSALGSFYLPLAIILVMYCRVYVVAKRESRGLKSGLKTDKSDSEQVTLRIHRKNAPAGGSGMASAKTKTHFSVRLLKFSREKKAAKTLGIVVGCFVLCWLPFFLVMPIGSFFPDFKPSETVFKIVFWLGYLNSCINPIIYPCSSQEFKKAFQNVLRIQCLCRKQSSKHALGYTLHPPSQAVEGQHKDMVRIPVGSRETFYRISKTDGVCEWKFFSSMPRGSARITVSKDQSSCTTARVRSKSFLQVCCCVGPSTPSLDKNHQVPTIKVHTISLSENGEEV
Briefly: Radioligand binding ([3H]prazosin) at cloned human α1a adrenergic receptor. The settings on record: LM(tk-) cell membranes, read-out: Binding affinities (pKi) α1a (converted). Here is the method: (§1) First, conditions were determined which allowed measurement of the specific binding of a compound known to bind to the receptor. Then, the binding of the known compound to the receptor in membrane preparations was evaluated in the presence of several different concentrations of the test compound.
(§2) These cell lines were prepared by transfecting the cloned cDNA or cloned genomic DNA or constructs containing both genomic DNA and cDNA encoding the human receptors as described below.
The construct involved ligating three partial overlapping fragments: a 5′0.6 kb HincII genomic clone, a central 1.8 EcoRI hippocampal cDNA clone, and a 3′0.6 Kb PstI genomic clone. The hippocampal cDNA fragment overlaps with the 5′ and 3′ genomic clones so that the HincII and PstI sites at the 5′ and 3′ ends of the cDNA clone, respectively, were utilized for ligation. This full-length clone was cloned into the KpnI site of the expression vector, using the 5′ and 3′ KpnI sites of the fragment, derived from vector (i.e., pBluescript) and 3′-untranslated sequences, respectively. Stable cell lines were selected as described above. Membranes were harvested and assayed for their ability to bind [^3H]prazosin as described below (see Radioligand Binding assays).
Radioligand Binding Assays for α1 Human Adrenergic Receptors: Transfected cells from culture flasks were scraped into 5 ml of 5 mM Tris-HCl, 5 mM EDTA, pH 7.5, and lysed by sonication. The cell lysates were centrifuged at 1000 rpm for 5 min at 4° C., and the supernatant was centrifuged at 30,000×g for 20 min at 4° C. The pellet was suspended in 50 mM Tris-HCl, 1 mM MgCl2, and 0.1% ascorbic acid at pH 7.5. Binding of the α1, antagonist [^3H]prazosin (0.5 nM, specific activity 76.2 Ci/mmol) to membrane preparations of LM(tk-) cells was done in a final volume of 0.25 ml and incubated at 37° C. for 1 hour. Nonspecific binding was determined in the presence of 10 μM phentolamine. The reaction was stopped by filtration through GF/B filters using a cell harvester.

A further experiment deals with T2, human 5-HT1a receptor (Homo sapiens, UniProt P08908).
T2 construct: receptor open reading frames and variable non-coding 5′- and 3′-regions, was cloned into the eukaryotic expression vector pCEXV-3; expressed in transfected cells; host or cells: COS-7 cells, transient (DEAE-dextran); a deposited line 5-HT1A-3 (ATCC CRL 11889) is also named
T2 sequence (P08908 1-422): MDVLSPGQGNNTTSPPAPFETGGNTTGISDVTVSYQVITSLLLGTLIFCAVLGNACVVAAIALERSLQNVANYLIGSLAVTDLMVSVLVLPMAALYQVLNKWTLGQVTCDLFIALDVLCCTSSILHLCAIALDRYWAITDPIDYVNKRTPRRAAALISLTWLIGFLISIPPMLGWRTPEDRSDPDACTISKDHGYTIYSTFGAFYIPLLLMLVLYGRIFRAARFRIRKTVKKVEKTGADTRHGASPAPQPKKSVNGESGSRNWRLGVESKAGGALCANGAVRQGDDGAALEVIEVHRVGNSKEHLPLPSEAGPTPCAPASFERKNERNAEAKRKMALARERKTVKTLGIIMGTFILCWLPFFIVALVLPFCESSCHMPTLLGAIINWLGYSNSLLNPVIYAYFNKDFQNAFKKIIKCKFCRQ
Briefly: Competition binding ([3H]-8-OH-DPAT) at cloned human 5-HT1a receptor. The conditions noted are these: COS-7 cell membranes, read-out: Binding affinities (pKi) 5-HT1a (converted). As for the experimental part: as §1, §2
The cDNA corresponding to the ^5-HT1a receptor open reading frames and variable non-coding 5′- and 3′-regions, was cloned into the eukaryotic expression vector pCEXV-3. These constructs were transfected transiently into COS-7 cells by the DEAE-dextran method. Cells were harvested after 72 hours and lysed by sonication in 5 mM Tris-HCl, 5 mM EDTA, pH 7.5. The cell lysates were centrifuged at 1000 rpm for 5 minutes at 4° C., and the supernatant was centrifuged at 30,000×g for 20 minutes at 4° C. The pellet was suspended in 50 mM Tris-HCl buffer (pH 7.7 at room temperature) containing 10 mM MgSO4, 0.5 mM EDTA, and 0.1% ascorbate. The affinity of compounds at 5-HT1a receptors were determined in equilibrium competition binding assays using [^3H]-8-OH-DPAT. Nonspecific binding was defined by the addition of 10 μM mianserin. The bound radioligand was separated by filtration through GF/B filters using a cell harvester.

Turning to `O=C1CC2(CCCC2)CC(=O)N1CCN1CCN(c2ccc(F)c(F)c2)CC1` [Compound 15, 8-{2-[4-(3,4-Difluorophenyl)piperazin-1-yl]ethyl}-8-azaspiro[4.5]decane-7,9-dione], the Ki was 3.98 µM in experiment [1] and 0.0501 µM at human 5-HT1a receptor.
Turning to `O=C1CC2(CCCC2)CC(=O)N1CCN1CCN(c2cc(F)ccc2F)CC1` [Compound 6, 8-{2-[4-(2,5-Difluorophenyl)piperazin-1-yl]ethyl}-8-azaspiro[4.5]decane-7,9-dione], at human 5-HT1a receptor, the Ki is 0.0251 µM.
On to `O=C1CC2(CCCC2)CC(=O)N1CCN1CCN(c2cc(F)c(F)cc2F)CC1` [Compound 7, 8-{2-[4-(2,4,5-Trifluorophenyl)piperazin-1-yl]ethyl}-8-azaspiro[4.5]decane-7,9-dione], for which the Ki in experiment [1] is 3.98 µM; at human 5-HT1a receptor, 0.398 µM.
In the case of `O=C1CC2(CCCC2)CC(=O)N1CCN1CCN(c2c(F)cccc2F)CC1` [Compound 14, 8-{2-[4-(2,6-Difluorophenyl)piperazino]ethyl}-8-azaspiro[4.5]decane-7,9-dione], the Ki in experiment [1] is 3.16 µM; on human 5-HT1a receptor it was 0.00794 µM.
The like results for `COc1ccc(F)cc1C1CCN(CCN2C(=O)CC3(CCCC3)CC2=O)CC1` [Compound 12, 8-{2-[4-(5-Fluoro-2-methoxyphenyl)piperidin-1-yl]ethyl}-8-azaspiro[4.5]decane-7,9-dione] were, in that order, 0.0794 µM and 0.00794 µM.
Taken in the same sequence, the figures for `C[C@H](CN1CCN(c2cc(F)ccc2F)CC1)N1C(=O)CC2(CCCC2)CC1=O` [Compound 8, 8-{(1R)-2-[4-(2,5-Difluorophenyl)piperazin-1-yl]-1-methylethyl}-8-azaspiro[4.5]decane-7,9-dione] were 6.31 µM and 0.0501 µM.
In the case of `Cc1ccc(Cl)cc1N1CCN(CCN2C(=O)CC3(CCCC3)CC2=O)CC1` [Compound 13, 8-{2-[4-(5-Chloro-2-methylphenyl)piperazino]ethyl}-8-azaspiro [4.5]decane-7,9-dione], the Ki is 7.94 µM in experiment [1] and 0.251 µM at human 5-HT1a receptor.
`C[C@@H](CN1CCN(c2cc(F)ccc2F)CC1)N1C(=O)CC2(CCCC2)CC1=O` [Compound 10, 8-{(1S)-2-[4-(2,5-Difluorophenyl)piperazin-1-yl]-1-methylethyl}-8-azaspiro[4.5]decane-7,9-dione]: the Ki in experiment [1] was 7.94 µM; at human 5-HT1a receptor, 2.51 µM.
